Data reported in US20230339886A1 (University of Florida Research Foundation, Incorporated, priority 2020, published 2023).

Target: T1, REV-ERBα LBD (human; residues 281-614 Δ324-422) (Homo sapiens, UniProt P20393, DEL324-422)
T1 construct: 6×Histag-REV-ERBα LBD (human; residues 281-614 Δ324-422); made in house; host or cells: Escherichia coli
Assay: TR-FRET corepressor interaction assay (REV-ERBα LBD, FITC-SMRT peptide)
Type: biochemical
Settings: FITC-SMRT peptide, read-out: REVERBα agonism (EC50 class, FRET assay)
In short: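 Compound serial dilutions (in DMSO, triplicate) incubated 2 h at 4 °C; Tb donor excited at 340 nm, emission read at 495 nm and FITC acceptor at 520 nm. TR-FRET ratio (520/495 nm) plotted against ligand concentration and fitted to a sigmoidal dose-response curve.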

T1 sequence (P20393 with tags, fused parts or gaps DEL324-422): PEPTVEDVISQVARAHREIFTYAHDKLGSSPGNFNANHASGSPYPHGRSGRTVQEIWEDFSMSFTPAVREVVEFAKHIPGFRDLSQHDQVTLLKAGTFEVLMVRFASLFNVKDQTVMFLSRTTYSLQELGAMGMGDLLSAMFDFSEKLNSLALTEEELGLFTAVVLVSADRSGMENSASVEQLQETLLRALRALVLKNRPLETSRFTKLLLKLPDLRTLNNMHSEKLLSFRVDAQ
T1 sequence (Q9Y618 2335-2356 partner limits assumed): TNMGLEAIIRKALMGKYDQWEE

EC50 [µM] | SMILES
< 0.5 | CC(C)(C)Cn1cc([C@H](NS(=O)(=O)C2CCC2)C(F)(F)F)c2ccc(-c3ccccc3C(F)(F)F)c(F)c21 [Example 544, (S)—N-(2,2,2-trifluoro-1-(7-fluoro-1-neopentyl-6-(2-(trifluoromethyl)phenyl)-1H-indol-3-yl)ethyl)cyclobutanesulfonamide]
< 0.5 | CC(C)(C)Cn1cc([C@H](NS(=O)(=O)C2CC2)C(F)F)c2ccc(-c3c(C#N)cccc3C(F)(F)F)cc21 [Example 545, (S)—N-(1-(6-(2-cyano-6-(trifluoromethyl)phenyl)-1-neopentyl-1H-indol-3-yl)-2,2-difluoroethyl)cyclopropanesulfonamide]
< 0.5 | CC(C)(C)Cn1cc([C@H](NS(=O)(=O)C2CC2)C(F)F)c2cc(F)c(-c3ccccc3C(F)(F)F)nc21 [Example 546, (S)—N-(2,2-difluoro-1-(5-fluoro-1-neopentyl-6-(2-(trifluoromethyl)phenyl)-1H-pyrrolo[2,3-b]pyridin-3-yl)ethyl)cyclopropanesulfonamide]
< 0.5 | CC(C)(C)Cn1cc([C@H](NS(=O)(=O)C2CC2)C(F)F)c2ccc(-c3ccccc3C(F)(F)F)nc21 [Example 547, (S)—N-(2,2-difluoro-1-(1-neopentyl-6-(2-(trifluoromethyl)phenyl)-1H-pyrrolo[2,3-b]pyridin-3-yl)ethyl)cyclopropanesulfonamide]
< 0.5 | [2H][C@](NS(=O)(=O)C1CC1)(c1cn(CC(C)(C)C)c2cc(-c3ccccc3C(F)(F)F)ccc12)C(F)F [Example 550, (S)—N-(2,2-difluoro-1-(1-neopentyl-6-(2-(trifluoromethyl)phenyl)-1H-indol-3-yl)ethyl-1-d)cyclopropanesulfonamide]
< 0.5 | CC(C)(C)Cn1cc([C@H](NS(=O)(=O)C2CC2)C(F)F)c2ccc(-c3ccc(F)cc3C(F)(F)F)cc21 [Example 551, (S)—N-(2,2-difluoro-1-(6-(4-fluoro-2-(trifluoromethyl)phenyl)-1-neopentyl-1H-indol-3-yl)ethyl)cyclopropanesulfonamide]
< 0.5 | CC(C)(C)Cn1cc([C@H](NS(=O)(=O)C2CCC2)C(F)F)c2ccc(-c3ccccc3C(F)(F)F)c(F)c21 [Example 552, (S)—N-(2,2-difluoro-1-(7-fluoro-1-neopentyl-6-(2-(trifluoromethyl)phenyl)-1H-indol-3-yl)ethyl)cyclobutanesulfonamide]
< 0.5 | CC(C)(C)Cn1cc([C@H](NS(=O)(=O)C2CC2)C(F)F)c2ccc(-c3ccccc3C(F)(F)F)c(F)c21 [Example 553, (S)—N-(2,2-difluoro-1-(7-fluoro-1-neopentyl-6-(2-(trifluoromethyl)phenyl)-1H-indol-3-yl)ethyl)cyclopropanesulfonamide]
< 0.5 | CC(C)(C)Cn1cc([C@H](NS(=O)(=O)C2CCC2)C(F)F)c2ccc(-c3ccc(F)cc3C(F)(F)F)cc21 [Example 562, (S)—N-(2,2-difluoro-1-(6-(4-fluoro-2-(trifluoromethyl)phenyl)-1-neopentyl-1H-indol-3-yl)ethyl)cyclobutanesulfonamide]
< 0.5 | [2H][C@](NS(=O)(=O)C1CCC1)(c1cn(CC(C)(C)C)c2cc(-c3ccccc3C(F)(F)F)ccc12)C(F)F [Example 563, (S)—N-(2,2-difluoro-1-(1-neopentyl-6-(2-(trifluoromethyl)phenyl)-1H-indol-3-yl)ethyl-1-d)cyclobutanesulfonamide]
< 0.5 | [2H]C([2H])(n1cc([C@H](NS(=O)(=O)C2CC2)C(F)(F)F)c2ccc(-c3ccccc3C(F)(F)F)cc21)C(C)(C)C [Example 564, (S)—N-(1-(1-(2,2-dimethylpropyl-1,1-d2)-6-(2-(trifluoromethyl)phenyl)-1H-indol-3-yl)-2,2,2-trifluoroethyl)cyclopropanesulfonamide]
